Patent WO2018160794A1, “Epha2-targeted docetaxel -generating liposomes in combination with an agent that impedes regulatory t cell activity for treating cancer” (dated 2018)

Columns and labels:
EMT-6 [1] = test: In vivo tumor growth inhibition in EMT-6 model versus dose-dense and standard docetaxel (Example 6); set-up: species or system mouse; details: EMT-6, Example 6; docetaxel 3.33 mg/kg three times a week (DTX-DD); Figure 7A
MC38 = test: In vivo antitumor efficacy in MC38 colon cancer model (Example 8); set-up: species or system mouse; details: MC38, C57BL6/J mice; days after treatment initiation; Figure 9B
EMT-6 [2] = test: In vivo antitumor efficacy in EMT-6 model versus free docetaxel (Example 3); set-up: species or system mouse; details: EMT-6, Example 3
T cells in EMT-6 tumors = test: FACS of immune cell infiltrate in EMT-6 tumors versus dose-dense and standard docetaxel (Example 6); format: in vivo, mouse; details: EMT-6, Example 6

## CC(=O)O[C@@]12CO[C@@H]1C[C@H](O)[C@@]1(C)C(=O)[C@H](O)C3=C(C)[C@@H](OC(=O)[C@H](O)[C@@H](NC(=O)OC(C)(C)C)c4ccccc4)C[C@@](O)([C@@H](OC(=O)c4ccccc4)[C@H]21)C3(C)C [docetaxel]
EMT-6 [1]
  tumor growth inhibition (in words): improved growth inhibition relative to DTX-MTD, but it did not recapitulate the inhibition observed in 46scFv-ILs-DTXp3 treatment
MC38
  median survival: 16 days
EMT-6 [2]
  tumor regression: no tumor regression
EMT-6 [2]; monotherapy, PD-1 10 mg/kg twice weekly, docetaxel 10 mg/kg q1w
  growth arrest: minimal growth arrest
T cells in EMT-6 tumors; dose-dense docetaxel (DTX-DD), 3.33 mg/kg three times a week
  effect on intratumoral immune cell populations: Neither the dose-dense (DTX-DD) nor the weekly (DTX-MTD) docetaxel treatment groups were observed to affect these intratumoral immune cell populations
T cells in EMT-6 tumors; weekly docetaxel (DTX-MTD), 10 mg/kg once a week
  effect on intratumoral immune cell populations: Neither the dose-dense (DTX-DD) nor the weekly (DTX-MTD) docetaxel treatment groups were observed to affect these intratumoral immune cell populations
